Test results published in publication PMC7395068, “The evolution of strategies to minimise the risk of human drug-induced liver injury (DILI) in drug discovery and development” (Archives of Toxicology, 2020).
Where two headings read alike, the source gives them in different places.

What was measured:
rBsep [1] = test system: rBsep; set-up: method as in Dawson 2012; settings: ref Dawson 2012, cited from earlier work
[2] = cited from earlier work
[3] = test system: HepG2 C3A spheroid, BSEP, Glu/Gal in HepG2 cells, bioactivation; settings: cited from earlier work
HepG2 cells [4] = settings: cited from earlier work
HepG2 = test system: HepG2; set-up: method as in Albrecht 2019; settings: In vitro Assay; ref Albrecht 2019; cited from earlier work
rBsep [5] = settings: In vitro Assay; ref Dawson 2012; cited from earlier work
[6] = cited from earlier work; remark: listed apart in the source
[7] = plasma free fraction; cited from earlier work
HepG2 cells [8] = settings: cited from earlier work; remark: listed apart in the source
HepG2 cells [9] = settings: cited from earlier work; remark: listed apart in the source
PHH [10] = settings: In vitro Assay; ref Albrecht 2019; cited from earlier work
[11] = cited from earlier work; remark: listed apart in the source
[12] = Plasma free fraction (fu) and unbound Cmax (Cmax,u); assay type: in vitro ADME, human; settings: unbound plasma Cmax
hLiMTs [13] = settings: cited from earlier work
[14] = test system: THLE-Null and THLE-3A4 cells; settings: In vitro Assay; ref Gustafsson 2014; cited from earlier work
PHH [15] = settings: cited from earlier work
[16] = test system: isolated mouse liver mitochondria; settings: In vitro Assay; ref Porceddu 2012; cited from earlier work
HepaRG cells = settings: HepaRG cells, BMCs in relation to 10 × human Cmax.tot; ref National Toxicology Program; cited from earlier work
HepaRG spheroids = assay: Combined HCI (HCS) and cellular ATP 3D assay in HepaRG spheroids; settings: for AC50 / minimal effective concentration: Homo sapiens
hLiMTs [17] = assay: Combined HCI (HCS) and cellular ATP 3D assay in hLiMTs; settings: for AC50 / minimal effective concentration: Homo sapiens
PHH liver spheroid = test system: PHH liver spheroid; set-up: method as in Foster et al. 2019; settings: liver-chip of comparable sensitivity, ref Foster et al. 2019; cited from earlier work
PHH spheroids = settings: In vitro Assay; ref Vorrink 2018; cited from earlier work
[18] = In vitro Assay, ref Proctor 2017
[19] = Microtissue model structural based (HCI), combined HCS and ATP, MEC < 25 × Cmax.tot cut-off

For `CO[C@H]1/C=C/O[C@@]2(C)Oc3c(C)c(O)c4c(O)c(cc(O)c4c3C2=O)NC(=O)/C(C)=C\C=C\[C@H](C)[C@H](O)[C@@H](C)[C@@H](O)[C@@H](C)[C@H](OC(C)=O)[C@@H]1C` [rifamycin SV], the “Inhibition of rBsep cutoff<1& cmax u>.2” value (rBsep [1]; cutoff<1& cmax u>.2) is listed as “+VE”, the “Inhibition of rBsep cutoff<3” value (rBsep [1]; cutoff<3) is listed as “+VE” and the “In vivo DILI” value ([2]; assignment in Dawson 2012, ref Dawson 2012) is listed as “+VE”.
In the case of `CC(=O)Nc1ccc(O)cc1` [acetaminophen], the “Bayesian Machine Learning DILI prediction, Williams (2019)” value ([3]; Bayesian modeling, ref Williams et al. 2019) is listed as “+VE”, the “Bayesian Machine Learning” value ([3]; In vitro Assay, ref Williams 2019) is listed as “+VE” and the “Structural based (HCI)” value (HepG2 cells [4]; In vitro Assay, ref O'Brien 2006) is listed as “+VE”. The “DILI in vitro assay prediction, O'Brien (2006)” value (HepG2 cells [4]; Structural based (HCI), HepG2, ref O'Brien et al. 2006) was “+VE (lowest HCI endpoint IC50 (or in the absence of dose–response < 100 µM) < 30 × total human plasma exposure levels (Cmax.tot))”, the “Cytotoxicity HepG2 48 hrs” value (HepG2) was “+VE” and the “Inhibition of rBsep cutoff<1& cmax u>.2” value (rBsep [5]) was “-VE”. For the same compound, the “Inhibition of rBsep cutoff<3” value (rBsep [5]) was “-VE”, the Cmax ([6]; read-out: Cmax.tot, value used by Albrecht, ref Albrecht et al. 2019) was 109 µM and the Cmax ([6]; read-out: Human plasma Cmax, total plasma Cmax.tot, median of 9 literature references) was 152 µM. For the same compound, the fu [7] was 0.920, the “Structural based (HCI)” value (HepG2 cells [8]; In vitro Assay, ref Persson 2013) was “-VE” and the “DILI in vitro assay prediction, Persson (2013)” value (HepG2 cells [8]; Structural based (HCI), HepG2, ref Persson et al. 2013) was “-VE”. The “Structural based (HCI)” value (HepG2 cells [9]; In vitro Assay, ref Tolosa 2012) was “+VE”, the “DILI in vitro assay prediction, Tolosa (2012)” value (HepG2 cells [9]; Structural based (HCI), HepG2, ref Tolosa et al. 2012) was “+VE” and the “Cytotoxicity PHH 48 hrs” value (PHH [10]) was “+VE”. The “DILI severity category (Chen et al. [2016])” value ([11]; LTKB DILIrank category, ref Chen et al. 2016) was “Most”, the DILI severity category ([11]; human DILI severity, ref Chen et al.) was “Most” and the “DILI +VE (5-8), DILI -VE (-4)” value ([11]; ref Chen 2016) was “+VE”. For the same compound, the DILI severity category ([11]; ref Chen 2016) was “vMost-DILI-Concern”, the “Human plasma Cmax,u” value [12] was 139.840 µM and the “hLiMTs ATP <100uM” value (hLiMTs [13]; [18]) was “-VE”. The “hLiMTs/100uM, Proctor (2017)” value (hLiMTs [13]; hLiMTs, ATP, IC50 threshold 100 µM, ref Proctor et al. 2017) was “-VE”, the “Assigned DILI category” value ([2]; Chen et al. 2016 or literature alignment, ref Chen et al. 2016) was 3 and the “In vivo DILI” value ([2]; […]) was “+VE”. The “In vivo DILI” value ([2]; ref Albrecht 2019) was “+VE”, the “In vivo DILI” value ([2]; ref Dawson 2012) was “+VE” and the “In vivo DILI” value ([2]; ref Garside 2014) was “+VE”. The “In vivo DILI” value ([2]; ref Gustafsson 2014) was “+VE”, the “In vivo DILI” value ([2]; ref O'Brien 2006) was “+VE” and the “In vivo DILI” value ([2]; ref Persson 2013) was “+VE”. The “In vivo DILI” value ([2]; ref Porceddu 2012) was “+VE”, the “In vivo DILI” value ([2]; ref Proctor 2017) was “+VE” and the “In vivo DILI” value ([2]; ref Schadt 2015) was “+VE”. The “In vivo DILI” value ([2]; ref Tolosa 2012) was “+VE”, the “In vivo DILI” value ([2]; ref Vorrink 2018) was “+VE” and the “In vivo DILI” value ([2]; ref Williams 2019) was “+VE”. For the same compound, the “In vivo DILI” value ([2]; ref Xu 2008) was “+VE”, the THLE-Null [14] was “-VE” and the “PHH/100uM, Proctor (2017)” value (PHH [15]; 2D PHH, ATP, IC50 threshold 100 µM, ref Proctor et al. 2017) was “-VE”. The “PHH ATP <100uM” value (PHH [15]; [18]) was “+VE (IC50 threshold of 100 µM)”, the “in vitro data EC2<=1x Cmax” value [16] was “+VE” and the “in vitro data EC20<=2uM” value [16] was “-VE”. For the same compound, the “DILI identification by high-throughput transcriptomics” value (HepaRG cells) was “identified”, the “HepaRG <25x Avg Cmax ATP” value (HepaRG spheroids; HepaRG, ATP endpoint, cut-off <25x Avg Cmax) was “+ve” and the “HepaRG <100x Avg Cmaxu ATP” value (HepaRG spheroids; HepaRG, ATP endpoint, cut-off <100x Avg Cmaxu) was “+ve (<100x Avg Cmaxu)”. The “HepaRG <25x Avg Cmax HCS” value (HepaRG spheroids; HepaRG, HCS endpoints, cut-off <25x Avg Cmax) was “+ve”, the “HepaRG <100x Avg Cmaxu HCS” value (HepaRG spheroids; HepaRG, HCS endpoints, cut-off <100x Avg Cmaxu) was “+ve (<100x Avg Cmaxu)” and the “HepaRG <25x Avg Cmax All” value (HepaRG spheroids; HepaRG, all endpoints (ATP and HCS), cut-off <25x Avg Cmax) was “+ve”. For the same compound, the “HepaRG Cmax max All” value (HepaRG spheroids; HepaRG, all endpoints, Cmax max used) was “+ve”, the “HepaRG Cmax min All” value (HepaRG spheroids; HepaRG, all endpoints, Cmax min used) was “+ve” and the “HepaRG <10 uM All” value (HepaRG spheroids; HepaRG, all endpoints, cut-off <10 uM) was “-ve”. For the same compound, the “HepaRG <100x Avg Cmaxu All” value (HepaRG spheroids; HepaRG, all endpoints, cut-off <100x Avg Cmaxu) was “+ve (<100x Avg Cmaxu)”, the AC50 (HepaRG spheroids; HepaRG, read-out: ATP endpoint AC50) was 760 µM and the minimal effective concentration (HepaRG spheroids; HepaRG, read-out: ATP endpoint MEC) was 187 µM. For the same compound, the AC50 (HepaRG spheroids; HepaRG, read-out: HCS endpoint AC50) was 3100 µM, the minimal effective concentration (HepaRG spheroids; HepaRG, read-out: HCS endpoint MEC) was 656 µM and the “DILI prediction HepaRG spheroids (HCS-MEC)” value (HepaRG spheroids; [19]) was “+VE (MEC < 25 × Cmax.tot cut-off)”. For the same compound, the AC50 (hLiMTs [17]; read-out: ATP endpoint AC50) was 1240 µM, the minimal effective concentration (hLiMTs [17]; read-out: ATP endpoint MEC) was 292 µM and the AC50 (hLiMTs [17]; read-out: HCS endpoint AC50) was 4340 µM. The minimal effective concentration (hLiMTs [17]; read-out: HCS endpoint MEC) was 456 µM, the “DILI prediction hLiMTs (HCS-MEC)” value (hLiMTs [17]; [19]) was “+VE (MEC < 25 × Cmax.tot cut-off)” and the “hLiMTs <25x Avg Cmax ATP” value (hLiMTs [17]; hLiMTs, ATP endpoint, cut-off <25x Avg Cmax) was “+ve”. For the same compound, the “hLiMTs <100x Avg Cmaxu ATP” value (hLiMTs [17]; hLiMTs, ATP endpoint, cut-off <100x Avg Cmaxu) was “+ve (<100x Avg Cmaxu)”, the “hLiMTs <25x Avg Cmax HCS” value (hLiMTs [17]; hLiMTs, HCS endpoints, cut-off <25x Avg Cmax) was “+ve” and the “hLiMTs <100x Avg Cmaxu HCS” value (hLiMTs [17]; hLiMTs, HCS endpoints, cut-off <100x Avg Cmaxu) was “+ve (<100x Avg Cmaxu)”. The “hLiMTs <25x Avg Cmax All” value (hLiMTs [17]; hLiMTs, all endpoints (ATP and HCS), cut-off <25x Avg Cmax) was “+ve”, the “hLiMTs Cmax max All” value (hLiMTs [17]; hLiMTs, all endpoints, Cmax max used) was “+ve” and the “hLiMTs Cmax min All” value (hLiMTs [17]; hLiMTs, all endpoints, Cmax min used) was “+ve”. For the same compound, the “hLiMTs <10 uM All” value (hLiMTs [17]; hLiMTs, all endpoints, cut-off <10 uM) was “-ve”, the “hLiMTs <100x Avg Cmaxu All” value (hLiMTs [17]; hLiMTs, all endpoints, cut-off <100x Avg Cmaxu) was “+ve (<100x Avg Cmaxu)” and the “detection in 3D microtissues” value (PHH liver spheroid) was “detected”. For the same compound, the “hLiMTs ATP <20 x Cmax” value (PHH spheroids) was “+VE (IC20 < 20 × Cmax.tot cut-off)”.
